In the supplement of paper PMC10307832 one finds relative viability data, which are given here for one cell line.

What all share (experiment): relative viability (nuclei count vs DMSO), 5 days (fraction); higher = more cells survive
Compound in the assay “Lapatinib + Foretinib”: CS(=O)(=O)CCNCc1ccc(-c2ccc3ncnc(Nc4ccc(OCc5cccc(F)c5)c(Cl)c4)c3c2)o1 [Lapatinib] + COc1cc2c(Oc3ccc(NC(=O)C4(C(=O)Nc5ccc(F)cc5)CC4)cc3F)ccnc2cc1OCCCN1CCOCC1 [Foretinib] (partner 0.25 µM)
The method, boiled down: (§1)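 After 5 days of treatment, lung cancer cells in 1536-well plates were fixed and stained in a single step (final 0.05% Triton X-100, 1% formaldehyde, 1 ug/ml Hoechst) and their nuclei counted on 4× images. Treatment had been applied by pin tool the day after seeding as one drug alone or as a fixed anchor-drug dose with five library-drug doses (not always all listed) in √10 steps. Relative viability is the nuclei count of treated wells divided by that of vehicle wells, and values are medians of duplicate plates.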

Compound in the assay “Wnt-C59 + Linsitinib”: CC1=NC=CC(=C1)C2=CC=C(C=C2)CC(=O)NC3=CC=C(C=C3)C4=CN=CC=C4 [Wnt-C59] + C[C@]1(O)C[C@@H](c2nc(-c3ccc4ccc(-c5ccccc5)nc4c3)c3c(N)nccn32)C1 [Linsitinib] (partner 1 µM)
A digest of the protocol: as §1

Compound in the assay “Lapatinib + Olaparib”: CS(=O)(=O)CCNCc1ccc(-c2ccc3ncnc(Nc4ccc(OCc5cccc(F)c5)c(Cl)c4)c3c2)o1 [Lapatinib] + O=C(c1cc(Cc2n[nH]c(=O)c3ccccc23)ccc1F)N1CCN(C(=O)C2CC2)CC1 [Olaparib] (partner 8 µM)
The method, boiled down: as §1

Compound in the assay “Lapatinib + Pictilisib”: CS(=O)(=O)CCNCc1ccc(-c2ccc3ncnc(Nc4ccc(OCc5cccc(F)c5)c(Cl)c4)c3c2)o1 [Lapatinib] + CS(=O)(=O)N1CCN(Cc2cc3nc(-c4cccc5[nH]ncc45)nc(N4CCOCC4)c3s2)CC1 [Pictilisib] (partner 1 µM)
A digest of the protocol: as §1

In the case of UMC-11, the relative viability in the assay with Lapatinib + Foretinib (first compound 0.02 µM) worked out at 0.951; with Lapatinib + Foretinib (first compound 0.06325 µM), 1.01; with Lapatinib + Foretinib (first compound 0.2 µM), 0.961; with Lapatinib + Foretinib (first compound 0.6325 µM), 0.978; with Lapatinib + Foretinib (first compound 2 µM) it was 0.933; with Wnt-C59 + Linsitinib (first compound 0.001 µM), 0.96. The relative viability in the assay with Wnt-C59 + Linsitinib (first compound 0.01 µM) was 0.977; with Wnt-C59 + Linsitinib (first compound 0.03162 µM), 1.04; in the assay with Wnt-C59 + Linsitinib (first compound 0.1 µM) it was 0.991; with Lapatinib + Olaparib (first compound 0.02 µM), 0.299; in the assay with Lapatinib + Olaparib (first compound 0.06325 µM) it was 0.342; with Lapatinib + Olaparib (first compound 0.2 µM) it was 0.347. Besides, the relative viability with Lapatinib + Olaparib (first compound 0.6325 µM) is 0.376; with Lapatinib + Olaparib (first compound 2 µM) it was 0.327; with Lapatinib + Pictilisib (first compound 0.02 µM) it was 0.251; with Lapatinib + Pictilisib (first compound 0.06325 µM) it was 0.731; with Lapatinib + Pictilisib (first compound 0.2 µM), 0.827; with Lapatinib + Pictilisib (first compound 0.6325 µM), 0.839. Also, the relative viability in the assay with Lapatinib + Pictilisib (first compound 2 µM) came to 0.759.
